Read-outs that look alike come from different tables or passages of the source.

The data set is described as follows: Iontophoretic administration of salmon calcitonin to beagles, blood level by RIA. It is filed as in vivo, beagle (dog). The settings on record: for level at 0.5 h: beagle, dog, blood, pulse depolarization iontophoresis 0.2 mA for 30 min, measured 30 minutes later, beagles under pentobarbital anesthesia, read-out: blood concentration of salmon calcitonin. The procedure:
Beagles were put under pentobarbital anesthesia. A positive electrode pad containing salmon calcitonin 1000 unit (an extraction pad of an electrode structure applied to the mucous membrane of the mouth) was applied to the mucous membrane of the mouth of each beagle. A negative electrode (a counter pad of an electrode structure applied to the skin) was applied to the ear of the beagle. A pulse depolarization type iontophoresis system was used to apply a 0.2-mA current for 30 minutes. Then, 30 minutes later, the level of salmon calcitonin in the blood was measured. An RIA kit (ROIK6003, Peninsula) was used for quantification.
As in the case with Example 3, salmon calcitonin was administered to beagles under pentobarbital anesthesia. However, the positive electrode pad was not applied to the mucous membrane of the mouth but to the skin (belly). The negative electrode was applied to the ear. The other conditions are similar to those for Example 3.
FIG. 4 is a graph showing the blood concentration observed 30 minutes after the application of the present system to the mucous membrane of the mouth (Example 3) and to the skin (Comparative Example 1). The blood concentration was about 530 pg/ml 30 minutes after salmon calcitonin was administered to the dog via the mucous membrane of the mouth (Example 3). The blood concentration was about 90 pg/ml 30 minutes after salmon calcitonin was administered to the dog via the skin (Comparative Example 1). Calcitonin is ionized, but owing to its […], calcitonin permeates through the living body as a result of the flow of water caused by iontophoresis instead of its direct electric driving force.

On to `CC(C)C[C@H](NC(=O)[C@H](CCCCN)NC(=O)CNC(=O)[C@H](CC(C)C)NC(=O)[C@@H](NC(=O)[C@@H]1CSSC[C@H](N)C(=O)N[C@@H](CO)C(=O)N[C@@H](CC(N)=O)C(=O)N[C@@H](CC(C)C)C(=O)N[C@@H](CO)C(=O)N[C@@H]([C@@H](C)O)C(=O)N1)C(C)C)C(=O)N[C@@H](CO)C(=O)N[C@@H](CCC(N)=O)C(=O)N[C@@H](CCC(=O)O)C(=O)N[C@@H](CC(C)C)C(=O)N[C@@H](Cc1c[nH]cn1)C(=O)N[C@@H](CCCCN)C(=O)N[C@@H](CC(C)C)C(=O)N[C@@H](CCC(N)=O)C(=O)N[C@H](C(=O)N[C@@H](Cc1ccc(O)cc1)C(=O)N1CCC[C@H]1C(=O)N[C@@H](CCCNC(=N)N)C(=O)N[C@H](C(=O)N[C@@H](CC(N)=O)C(=O)N[C@H](C(=O)NCC(=O)N[C@@H](CO)C(=O)NCC(=O)N[C@H](C(=O)N1CCC[C@H]1C(N)=O)[C@@H](C)O)[C@@H](C)O)[C@@H](C)O)[C@@H](C)O` [salmon calcitonin], for which the level at 0.5 h runs as follows: (topical or ocular, Comparative Example 1: positive electrode pad (1000 unit) on skin (belly)) ~0.09 ng/mL; (Example 3: positive electrode pad (1000 unit) on mucous membrane of the mouth) ~0.53 ng/mL. In addition, the “absorptivity of mucous membrane relative to skin” value (iontophoresis, mucous membrane vs skin) was “six”.
